According to ChEMBL document CHEMBL4316646, “Strepantibins A-C: Hexokinase II Inhibitors from a Mud Dauber Wasp Associated Streptomyces sp” (J Nat Prod, 2019):
Structures can show the parent of a compound that is named as a salt. Active and inactive are the calls of the source. The rule behind the calls is not given here.

T1: Hexokinase-2 (Homo sapiens, UniProt P52789)
T1 sequence (P52789 whole entry): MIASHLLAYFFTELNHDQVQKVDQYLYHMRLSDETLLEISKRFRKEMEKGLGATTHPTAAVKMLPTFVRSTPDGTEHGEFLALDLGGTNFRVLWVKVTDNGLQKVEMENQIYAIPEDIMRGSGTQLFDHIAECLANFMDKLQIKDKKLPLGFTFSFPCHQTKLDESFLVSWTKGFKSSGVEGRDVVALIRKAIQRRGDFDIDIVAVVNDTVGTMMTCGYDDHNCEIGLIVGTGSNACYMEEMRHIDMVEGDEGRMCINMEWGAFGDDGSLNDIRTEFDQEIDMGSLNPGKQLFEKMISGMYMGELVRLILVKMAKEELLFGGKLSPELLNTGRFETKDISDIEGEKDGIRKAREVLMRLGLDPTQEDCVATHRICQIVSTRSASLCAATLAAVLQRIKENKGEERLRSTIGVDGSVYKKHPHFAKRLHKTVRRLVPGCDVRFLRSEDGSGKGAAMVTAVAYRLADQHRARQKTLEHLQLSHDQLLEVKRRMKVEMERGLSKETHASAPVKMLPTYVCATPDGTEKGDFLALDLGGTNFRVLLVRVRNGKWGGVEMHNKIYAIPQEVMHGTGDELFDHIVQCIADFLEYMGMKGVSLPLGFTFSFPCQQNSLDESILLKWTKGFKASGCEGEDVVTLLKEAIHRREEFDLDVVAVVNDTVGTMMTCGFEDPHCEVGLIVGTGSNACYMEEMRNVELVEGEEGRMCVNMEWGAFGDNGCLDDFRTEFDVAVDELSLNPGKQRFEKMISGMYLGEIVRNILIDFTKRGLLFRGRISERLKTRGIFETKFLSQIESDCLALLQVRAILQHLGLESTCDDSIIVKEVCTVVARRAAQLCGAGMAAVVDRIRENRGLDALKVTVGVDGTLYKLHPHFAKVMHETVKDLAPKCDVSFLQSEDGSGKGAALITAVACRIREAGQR

B1: Hexokinase-2 (Homo sapiens), P52789 (protein)
chain: T1 sequence (P52789 whole entry)

Experiments:
SMMC-7721 [1] = experiment: Cytotoxicity against human SMMC7721 cells assessed as reduction in cell viability by MTT assay; format: functional, cell-based
HepG2 = experiment: Cytotoxicity against human HepG2 cells assessed as reduction in cell viability by MTT assay; format: functional, cell-based
Hexokinase-2 = target: T1, Hexokinase-2; experiment: Inhibition of HK2 (unknown origin) using glucose-6-phosphate dehydrogenase as substrate preincubated for 10 mins followed by substrate addition
PLC-PRF-5 = experiment: Cytotoxicity against human PLC/PRF/5 cells assessed as reduction in cell viability by MTT assay; format: functional, cell-based
L02 = experiment: Cytotoxicity against human LO2 cells assessed as reduction in cell viability by MTT assay; format: ADME, cell-based
SMMC-7721 [2] = experiment: Induction of apoptosis in human SMMC7721 cells assessed as formation of apoptotic bodies at 0.5 to 8 uM measured after 24 hrs by DAPI staining based fluorescence microscopic analysis; format: functional, cell-based
SMMC-7721 [3] = experiment: Induction of apoptosis in human SMMC7721 cells assessed as chromatin […] at 0.5 to 8 uM measured after 24 hrs by DAPI staining based fluorescence microscopic analysis; format: functional, cell-based
[4] = compound: COC1=C(c2ccccc2)C(=O)[C@@](O)(CC(C)=O)C(c2ccccc2)=C1; experiment: (§1) Competitive-inhibition of HK2 (unknown origin) assessed as Km at 10 uM using varying levels of glucose-6-phosphate dehydrogenase as substrate by Lineweaver-burk plot analysis; settings: Homo sapiens
[5] = compound: COc1cc(-c2ccccc2)c(=O)c(C(C)=O)c(O)c1-c1ccccc1; experiment: as §1; settings: Homo sapiens
[6] = compound: CC1(C)N=C2C(c3ccccc3)=CC(=O)C(c3ccccc3)=C2O1; experiment: as §1; settings: Homo sapiens

Molecule	IC50 (SMMC-7721 [1]) [µM]	IC50 (HepG2) [µM]	IC50 (Hexokinase-2) [µM]	IC50 (PLC-PRF-5) [µM]	IC50 (L02) [µM]	Activity (SMMC-7721 [2])	Activity (SMMC-7721 [3])	Km [4] [µM]	Km [5] [µM]	Km [6] [µM]
COc1cc(-c2ccccc2)c(=O)c(C(C)=O)c(O)c1-c1ccccc1	10.3	9.5	31.2	7.1	17.8					
CC1(C)N=C2C(c3ccccc3)=CC(=O)C(c3ccccc3)=C2O1	4.9	12.3	34.6	11.6	17.6					
COc1cccc2c1C(=O)c1c(O)c3c(c(O)c1C2=O)C[C@@](O)(C(=O)CO)C[C@@H]3O[C@H]1C[C@H](N)[C@H](O)[C@H](C)O1 [DOXORUBICIN HYDROCHLORIDE]	1.1	2.6		1.9	13.5					
O=c1[nH]cc(F)c(=O)[nH]1 [FLUOROURACIL]	2.5	3.6		2.8	10.6					
COC1=C(c2ccccc2)C(=O)[C@@](O)(CC(C)=O)C(c2ccccc2)=C1	2.9	2.3	9.8	1.9	11.2	Active	Active			
B1								430	310	290
